In ChEMBL document CHEMBL1144919, “Synthesis of novel thrombin inhibitors. Use of ring-closing metathesis reactions for synthesis of P2 cyclopentene- and cyclohexenedicarboxylic acid derivatives” (J Med Chem, 2003):

target: Prothrombin (Homo sapiens, UniProt P00734); experiment: In vitro inhibitory concentration of compound against human thrombin

First: CCc1cccc(N(CC)C(=O)C2=CCCC2C(=O)NCc2ccc(C(=N)N)cc2)c1 (stereo not given)
Second: CCN(C(=O)C1=CCCC1C(=O)NCc1ccc(C(=N)N)cc1)c1cccc(F)c1 (stereo not given)
The IC50 of the first is 2.3-fold lower: 270 nM for the first, 630 nM for the second.

First: Cc1ccccc1N(CC(=O)O)C(=O)C1=C(C(=O)NCc2ccc(C(=N)N)cc2)CCC1
Second: CCN(C(=O)C1=C(C(=O)NCc2ccc(C(=N)N)cc2)CCC1)c1ccccc1
The IC50 of the first is 4.3-fold higher: 120000 nM for the first, 28000 nM for the second.

Going from `CCN(C(=O)C1=CCCC1C(=O)NCc1ccc(C(=N)N)cc1)c1cccc(OC)c1` (stereo not given) to `CCN(C(=O)C1=CCC[C@H]1C(=O)NCc1ccc(C(=N)N)cc1)c1cccc(OC)c1`, the IC50 falls from 240 nM to 120 nM (2-fold). The second is the more potent here.

Going from `N=C(N)c1ccc(CNC(=O)C2=C(C(=O)NC3CCCCC3)CCC2)cc1` to `N=C(N)c1ccc(CNC(=O)C2CCCC=C2C(=O)NC2CCCCC2)cc1` (stereo not given), the IC50 rises from 19000 nM to > 130000 nM.

Going from `CCN(C(=O)C1=CCCCC1C(=O)NCc1ccc(C(=N)N)cc1)c1ccccc1` (stereo not given) to `CCN(C(=O)C1=CCCC1C(=O)NCc1ccc(C(=N)N)cc1)c1ccccc1` (stereo not given), the IC50 falls from 3800 nM to 970 nM (3.9-fold). The second is the more potent here.

Going from `CCN(C(=O)C1=CCCC1C(=O)NCc1ccc(C(=N)N)cc1)c1cc(Cl)ccc1C` (stereo not given) to `CCN(C(=O)C1=CCCC1C(=O)NCc1ccc(C(=N)N)cc1)c1ccccc1C` (stereo not given), the IC50 rises from 220 nM to 680 nM (3.1-fold). The first is the more potent here.

First: CCc1cccc(N(C(=O)C2=CCCC2C(=O)NCc2ccc(C(=N)N)cc2)C2CCCCC2)c1 (stereo not given)
Second: COc1ccc(OC)c(N(C(=O)C2=CCCC2C(=O)NCc2ccc(C(=N)N)cc2)C2CCCCC2)c1 (stereo not given)
The IC50 of the first is 5.3-fold higher: 260 nM for the first, 49 nM for the second.

Going from `CCN(C(=O)C1=CCCCC1C(=O)NCc1ccc(C(=N)N)cc1)c1ccccc1C` (stereo not given) to `CCN(C(=O)C1=CCCC1C(=O)NCc1ccc(C(=N)N)cc1)c1ccccc1F` (stereo not given), the IC50 falls from 4600 nM to 350 nM (13-fold). The second is the more potent here.

`CC1Cc2ccccc2N1C(=O)C1=CCCC1C(=O)NCc1ccc(C(=N)N)cc1` (stereo not given) and `N=C(N)c1ccc(CNC(=O)C2CCC=C2C(=O)N2CCc3ccccc32)cc1` (stereo not given) are within 1.5-fold of each other in IC50: 3400 nM for the first, 4600 nM for the second.

First: CCN(C(=O)C1=CCCC1C(=O)NCc1ccc(C(=N)N)cc1)c1cc(OC)cc(OC)c1 (stereo not given)
Second: CCN(C(=O)C1=CCCC1C(=O)NCc1ccc(C(=N)N)cc1)c1cc(OC)ccc1OC (stereo not given)
The IC50 of the first is 2.9-fold higher: 210 nM for the first, 73 nM for the second.

Compared with `CCN(C(=O)C1=CCCC1C(=O)NCc1ccc(C(=N)N)cc1)c1ccc(OC)cc1` (stereo not given), `CCN(C(=O)C1=CCCC1C(=O)NCc1ccc(C(=N)N)cc1)c1ccccc1OC` (stereo not given) is 3.8-fold lower in IC50: 940 nM for the first, 250 nM for the second.

`N=C(N)c1ccc(CNC(=O)C2CCCC=C2C(=O)NCc2ccccc2)cc1` (stereo not given) and `N=C(N)c1ccc(CNC(=O)C2CCCC=C2C(=O)Nc2ccccc2)cc1` (stereo not given) are within 1.5-fold of each other in IC50: 109000 nM for the first, 130000 nM for the second.

Going from `CCN(C(=O)C1CCC=C1C(=O)NCc1ccc(C(=N)N)cc1)c1cccc(OC)c1` (stereo not given) to `CCN(C(=O)C1CCC=C1C(=O)NCc1ccc(C(=N)N)cc1)c1ccccc1` (stereo not given), the IC50 rises from 7800 nM to 16000 nM (2.1-fold).

Compared with `CCN(C(=O)C1CCC=C1C(=O)NCc1ccc(C(=N)N)cc1)c1ccccc1F` (stereo not given), `Cc1ccccc1N(CC(=O)O)C(=O)C1=CCCC1C(=O)NCc1ccc(C(=N)N)cc1` (stereo not given) is 72-fold lower in IC50: 93000 nM for the first, 1300 nM for the second. The second is the more potent here.

`CCN(C(=O)C1=C(C(=O)NCc2ccc(C(=N)N)cc2)CCC1)c1cc(Cl)ccc1C` and `CCN(C(=O)C1=C(C(=O)NCc2ccc(C(=N)N)cc2)CCC1)c1cccc(OC)c1` are within 1.5-fold of each other in IC50: 23000 nM for the first, 24000 nM for the second.

First: N=C(N)c1ccc(CNC(=O)C2=C(C(=O)N3CCc4ccccc43)CCC2)cc1
Second: N=C(N)c1ccc(CNC(=O)C2CCC=C2C(=O)N2CCCCC2)cc1 (stereo not given)
The IC50 of the first is higher: > 130000 nM for the first, 6000 nM for the second.

First: N=C(N)c1ccc(CNC(=O)C2CCCC=C2C(=O)N2CCCCC2)cc1 (stereo not given)
Second: CCN(C(=O)C1=CCCC1C(=O)NCc1ccc(C(=N)N)cc1)c1cccc(Cl)c1 (stereo not given)
The IC50 of the first is 97-fold higher: 38000 nM for the first, 390 nM for the second. The second is the more potent here.

`N=C(N)NCCC[C@H](NC(=O)[C@@H]1CCCN1C(=O)C(N)Cc1ccccc1)C(=O)O` (stereo in doubt) was tested, and the IC50 was 0.017 nM.
